Test systems include RPMI-8226 leukemia; HT29 colon; SNB-75 CNS; HCT-15 colon; SK-OV-3 ovarian; MOLT-4 leukemia; MDA-N; SK-MEL-2 melanoma; PC-3 prostate; COLO 205 colon; LOX IMVI melanoma; NCI/ADR-RES ovarian; SW-620 colon; HOP-92 NSCLC; NCI-H522 lung; MDA-MB-231 breast; NCI-H460 lung; HS 578T breast; HL-60(TB) leukemia; UO-31 renal.
Common to all, as to assay: NCI anticancer screen, dose series, 48 h

Structures are written as SMILES.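 Each compound was tested at five concentrations against cells in 96-well plates for 48 hours. TGI marks complete inhibition of growth.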

With `CC(C)=CCC[C@](C)(O)[C@H]1CC[C@]2(C)[C@@H]1[C@H](O)C[C@@H]1[C@@]3(C)CC[C@H](O[C@@H]4O[C@H](CO)[C@@H](O)[C@H](O)[C@H]4O)C(C)(C)[C@@H]3CC[C@]12C`, the TGI came out at 38.8 µM with RPMI-8226 leukemia; 32.5 µM with HT29 colon; 33.5 µM with SNB-75 CNS; 32.8 µM in the test with HCT-15 colon; 33 µM in the test with SK-OV-3 ovarian; 34.8 µM in the test with MOLT-4 leukemia. Moreover, the TGI in the test with MDA-N stood at 36.3 µM; in the test on SK-MEL-2 melanoma it was 29.7 µM; in the test on PC-3 prostate, 31.9 µM; in the test on COLO 205 colon, 37.3 µM; with LOX IMVI melanoma, 91.5 µM; in the test on NCI/ADR-RES ovarian it was 55.1 µM. Also, the TGI in the test with SW-620 colon stood at 36.6 µM; with HOP-92 NSCLC, 33.7 µM; in the test on NCI-H522 lung it was 31.9 µM; with MDA-MB-231 breast, 36.4 µM; in the test on NCI-H460 lung it was 30.2 µM; in the test with HS 578T breast, 47 µM. The TGI in the test with HL-60(TB) leukemia came out at 45.8 µM; in the test on UO-31 renal it was 31.1 µM.
For `O=C(O)CN1CCNCCN(CC(=O)O)CCNCC1`, the TGI in the test on RPMI-8226 leukemia is over 100 µM; in the test with HT29 colon, over 100 µM; in the test on SNB-75 CNS it was 98.9 µM; in the test with HCT-15 colon, over 74.7 µM; in the test on SK-OV-3 ovarian, over 100 µM; in the test with MOLT-4 leukemia, over 100 µM. In addition, the TGI in the test on MDA-N is over 31.6 µM; in the test with SK-MEL-2 melanoma, over 100 µM; with PC-3 prostate, over 100 µM; in the test with COLO 205 colon it was over 36.4 µM; in the test with LOX IMVI melanoma it was over 100 µM; with NCI/ADR-RES ovarian, over 100 µM. Besides, the TGI was over 100 µM in the test with SW-620 colon; over 100 µM in the test on HOP-92 NSCLC; over 100 µM with NCI-H522 lung; over 100 µM in the test with MDA-MB-231 breast; over 50.5 µM with NCI-H460 lung; over 100 µM in the test on HS 578T breast. Also, the TGI in the test with HL-60(TB) leukemia was 15.2 µM; in the test on UO-31 renal it was over 100 µM.

Source of the values: PubChem BioAssay (NCI).
